Source: patent publication US11053212B2, “Benzimidazole derivatives as bromodomain inhibitors” (GLAXOSMITHKLINE INTELLECTUAL PROPERTY DEVELOPMENT LIMITED, priority 2015, dated 2021)
Counter-ions that a name gives are not always drawn. Like-named read-outs stand apart in the source and are kept apart here.

Assays:
[1] = test system: LPS induced MCP-1 production; test: LPS induced MCP-1 production from human whole blood; type: cell-based; details: LPS 200 ng/mL, 18-24 hours; for IC50: read-out: mean pIC50, LPS induced MCP-1 production (converted)
Text: Measurement of LPS Induced MCP-1 Production from Human Whole Blood
Activation of monocytic cells by agonists of toll-like receptors such as bacterial lipopolysaccharide (LPS) results in production of key inflammatory mediators including MCP-1. Such pathways are widely considered to be central to the pathophysiology of a range of auto-immune and inflammatory disorders. Blood is collected in a tube containing Sodium heparin (Leo Pharmaceuticals) (10 units of heparin/mL of blood). 96-well compound plates containing 1 μL test sample in 100% DMSO were prepared (two replicates on account of donor variability). 130 μL of whole blood was dispensed into each well of the 96-well compound plates and incubated for 30 min at 37° C., 5% CO2. 10 μL of lipopolysaccharide (from Salmonella typhosa; L6386) made up in PBS (200 ng/mL final assay concentration) was added to each well of the compound plates. The plates were then placed in the humidified primary cell incubator for 18-24 hours at 37° C., 5% CO2. 140 μL of PBS was added to all wells of the compound plates containing blood. The plates were then sealed and centrifuged for 10 mins at 2500 rpm. 25 μL of cell supernatant was placed in a 96-well MSD plate pre-coated with human MCP-1 capture antibody. The plates were sealed and placed on a shaker at 600 rpm for 1 hour (r.t). 25 μL of Anti-human MCP-1 antibody labelled with MSD SULFO-TAG™ reagent is added to each well of the MSD plate (stock 50× was diluted 1:50 with Diluent 100, final assay concentration is 1 μg/mL). The plates were then re-sealed and shaken for another hour before washing with PBS. 150 μL of 2×MSD Read Buffer T (stock 4×MSD Read Buffer T was diluted 50:50 with de-ionised water) was then added to each well and the plates read on the MSD Sector Imager 6000. Concentration response curves for each compound were generated from the data and an pIC50 value was calculated.

BRD4 BD2 = biological target: T1, BRD4 BD2 (Homo sapiens, UniProt O60885, Y97A); test: TR-FRET binding assay, BRD4 BD2 (mutant protein); details: 10 nM mutated bromodomain protein, Alexa Fluor647 ligand at Kd, read-out: mean pIC50 in the BRD4 BD2 assay (converted)
T1 construct: BRD4 (1-477) (Y97A) and (Y390A); made in house; host or cells: E. coli (pET15b vector)
Description: (§1) Biological Data Time Resolved Fluorescence Resonance Energy Transfer (TR-FRET) Assay
(§2) Binding was assessed using a time resolved fluorescent resonance energy transfer binding assay. This utilises a 6 His purification tag at the N-terminal of the proteins as an epitope for an anti-6 His antibody labeled with Europium chelate (PerkinElmer AD0111) allowing binding of the Europium to the proteins which acts as the donor fluorophore.
(§3) In the absence of a competing compound, excitation of the Europium causes the donor to emit at λ618 nm which excites the Alexa labelled bromodomain binding compound leading to an increased energy transfer that is measurable at λ647 nM. In the presence of a sufficient concentration of a compound that can bind these proteins, the interaction is disrupted leading to a quantifiable drop in fluorescent resonance energy transfer.
(§4) The binding of compounds of the invention to Bromodomains BRD2, BRD3, BRD4 and BRDT was assessed using mutated proteins to detect differential binding to either Binding Domain 1 (BD1) or Binding Domain 2 (BD2) on the bromodomain. […] Therefore in the final assay conditions, binding of the fluoroligand to the mutated domain cannot be detected and subsequently the assay is suitable to determine the binding of compounds to the single non-mutated bromodomain.
Recombinant Human Bromodomains [(BRD2 (1-473) (Y113A) and (Y386A), BRD3 (1-435) (Y73A) and (Y348A) BRD4 (1-477) (Y97A) and (Y390A) and BRDT (1-397) (Y66A) and (Y309A)] were expressed in E coli cells (in pET15b vector for BRD2/3/4 and in pET28a vector for BRDT) with a 6-His tag at the N-terminal. The His-tagged Bromodomain pellet was resuspended in 50 mM HEPES (pH7.5), 300 mM NaCl, 10 mM imidazole & 1 μl/ml protease inhibitor cocktail and extracted from the E coli cells using sonication and purified using a nickel sepharose high performance column, the proteins were washed and then eluted with a linear gradient of 0-500 mM imidazole with buffer 50 mM HEPES (pH7.5), 150 mM NaCl, 500 mM imidazole, over 20 column volumes. Final purification was completed by Superdex 200 prep grade size exclusion column. Purified protein was stored at −80° C. in 20 mM HEPES pH 7.5 and 100 mM NaCl.
All assay components were dissolved in buffer composition of 50 mM HEPES pH7.4, 50 mM NaCl, 5% Glycerol, 1 mM DTT and 1 mM CHAPS. The final concentration of bromodomain proteins were 10 nM and the Alexa Fluor647 ligand was at Kd. These components were premixed and 5 μl of this reaction mixture was added to all wells containing 50 nl of various concentrations of test compound or DMSO vehicle (0.5% DMSO final) in Greiner 384 well black low volume microtitre plates and incubated in dark for 30 minutes at rt. […] of detection mixture containing 1.5 nM final concentration anti-6His Europium chelate was added to all wells and a further dark incubation of at least 30 minutes was performed. Plates were then read on the Envision plate reader, (⋅ex=317 nm, donor ⋅em=615 nm; acceptor ⋅em=665 nm; Dichroic LANCE dual). Time resolved fluorescent intensity measurements were made at both emission wavelengths and the ratio of acceptor/donor was calculated and used for data analysis. All data was normalized to the mean of 16 high (inhibitor control—Example 11 of WO 2011/054846A1) and 16 low (DMSO) control wells on each plate. A four parameter curve fit of the following form was then applied: y=a+((b−a)/(1+(10^x/10^c)^d) Where ‘a’ is the minimum, […], ‘c’ is the pIC50 and […].

BRD4 BD1 = biological target: T2, BRD4 BD1 (Homo sapiens, UniProt O60885, Y390A); test: TR-FRET binding assay, BRD4 BD1 (mutant protein); details: 10 nM mutated bromodomain protein, Alexa Fluor647 ligand at Kd, read-out: mean pIC50 in the BRD4 BD1 assay (converted)
T2 construct: BRD4 (1-477) (Y97A) and (Y390A); made in house; host or cells: E. coli (pET15b vector)
Description: as §1, §2, §3
as §4, with “non-mutated bromodomain. […]” for “non-mutated bromodomain.”
All assay components were dissolved in buffer composition of 50 mM HEPES pH7.4, 50 mM NaCl, 5% Glycerol, 1 mM DTT and 1 mM CHAPS. […] Plates were then read on the Envision plate reader, (⋅ex=317 nm, donor ⋅em=615 nm; acceptor ⋅em=665 nm; Dichroic LANCE dual). Time resolved fluorescent intensity measurements were made at both emission wavelengths and the ratio of acceptor/donor was calculated and used for data analysis. […]

mean pIC50, LPS induced MCP-1 production [1] | IC50 ([1]; Homo sapiens) [µM] | IC50 [1] [µM] | IC50 (BRD4 BD2) [µM] | IC50 (BRD4 BD1) [µM] | Compound
 |  | 0.01 | 0.398 | 0.0501 | COCC(COC)n1c(-c2cc(C)c(=O)n(C)c2)nc2cc(CN[C@H](C(=O)OC(C)C)[C@@H](C)O)ccc21 [Example 305, (2S,3R)-Isopropyl 2-(((1-(1,3-dimethoxypropan-2-yl)-2-(1,5-dimethyl-6-oxo-1,6-dihydropyridin-3-yl)-1H-benzo[d]imidazole-5-yl)methyl)amino)-3-hydroxybutanoate]
 |  | 1 | 1.26 | 0.2 | COCC(COC)n1c(-c2cc(C)c(=O)n(C)c2)nc2cc(CN[C@H](C(=O)O)[C@@H](C)O)ccc21 [Example 66, (2S,3R)-2-(((1-(1,3-dimethoxypropan-2-yl)-2-(1,5-dimethyl-6-oxo-1,6-dihydropyridin-3-yl)-1H-benzo[d]imidazol-5-yl)methyl)amino)-3-hydroxybutanoic acid hydrochloride]

More lines, now with the values behind:

Compound | mean pIC50, LPS induced MCP-1 production [1] | IC50 ([1]; Homo sapiens) [µM] | IC50 [1] [µM] | IC50 (BRD4 BD2) [µM] | IC50 (BRD4 BD1) [µM]
Cc1cc(-c2nc3cc(CN[C@H](C(=O)OC(C)C)[C@@H](C)O)ccc3n2CC2CCOCC2)cn(C)c1=O [edisylate salt of Example 303, 1,2-ethanedisulphonic acid salt of (2S,3R)-isopropyl 2-(((2-(1,5-dimethyl-6-oxo-1,6-dihydropyridin-3-yl)-1-((tetrahydro-2H-pyran-4-yl)methyl)-1H-benzo[d]imidazol-5-yl)methyl)amino)-3-hydroxybutanoate] | 7.5 |  |  |  | 
Cc1cc(-c2nc3cc(CN[C@H](C(=O)OC(C)C)[C@@H](C)O)ccc3n2CC2CCOCC2)cn(C)c1=O [Example 303, (2S,3R)-isopropyl 2-(((2-(1,5-dimethyl-6-oxo-1,6-dihydropyridin-3-yl)-1-((tetrahydro-2H-pyran-4-yl)methyl)-1H-benzo[d]imidazol-5-yl)methyl)amino)-3-hydroxybutanoate] |  | 0.0251 |  |  | 
Cc1cc(-c2nc3cc(CN[C@H](C(=O)O)[C@@H](C)O)ccc3n2CC2CCOCC2)cn(C)c1=O [Example 68, (2S,3R)-2-(((2-(1,5-dimethyl-6-oxo-1,6-dihydropyridin-3-yl)-1-((tetrahydro-2H-pyran-4-yl)methyl)-1H-benzo[d]imidazol-5-yl)methyl)amino)-3-hydroxybutanoic acid hydrochloride] |  |  | 3.98 | 0.631 | 0.251
